Consider 89 molecules from a melting point compilation (Tetko et al.; mined from patent text by program, amines drawn as free bases though some values may be those of a salt).

`Cc1nsnc1-c1cccnc1` had a melting point of 55 to 57 °C.
Next, `O=C(O)c1cccc(-c2ccc3c(c2)C(Oc2ccc(Cl)cc2Cl)CC3)c1` (centres undefined): 173 to 174 °C; `CC(CC1OCCc2ccccc21)NCC(O)c1ccc(O)cc1` (centres undefined): 83 to 105 °C; `CCOc1nc(NCc2ccco2)nc(Nc2ccccc2-c2cccnc2)n1`: 90 to 92 °C.
The value for `Cc1ccc2nc(/C=C/c3ccccc3)n(-c3ccccn3)c2c1` was 164 to 165 °C.
`O=C(Nc1ccc(OCCCBr)cc1)c1cccc2c(=O)c3ccccc3[nH]c12` gave a melting point of 126 °C.
The value for `COC(=O)CCCc1cc2nc(C(F)(F)F)ccc2n1S(=O)(=O)c1ccc2c(c1)OCCN2C` was 118 °C; that for `COC(=O)[C@@H](OS(=O)(=O)c1ccc(C)cc1)[C@H](O)C1CC1` was 75 to 78 °C; that for `COc1ccc(-c2nc3sccn3c2/C=C/C(=O)c2cc(OC)c(OC)c(OC)c2)cc1` was 177 to 179 °C.
Next, `CC(=O)N1CCc2cc(CC(C)Br)cc(C#N)c21` (centres undefined): 115 to 117 °C.
Next, `Fc1cc(Cc2ccnc3c2Cc2ccccc2O3)ccn1`: 185 to 189 °C.
For the molecule `CC#CCOc1ccc(S(=O)(=O)N(C)C(C(=O)NO)c2ccc(OCCCNC(=O)OCCCC)cc2)cc1` (centres undefined), the melting point lay in the range of 50 to 55 °C.
`Cc1ccccc1S(=O)(=O)NC1CCc2sccc2C1` (centres undefined): the melting point lay within 130 to 132 °C.
The value for `CC(=O)Oc1ccc(C=C2SC(=O)NC2=O)cc1` was 238 to 240 °C; that for `COC(=O)C(=CC(=CN(C)C)c1ccccc1[N+](=O)[O-])[N+](=O)[O-]` was 211 to 214 °C; that for `Cc1nn(-c2cc(Oc3ccc(C#N)cc3)c(Cl)cc2F)c(=O)n1C(F)F` was 175 to 177 °C.
Next, `CCn1c(=O)c2c(-c3noc(C4CC4)n3)ncn2c2cccnc21`: 254 to 255 °C; `CC(=O)C(=Cc1c(-c2ccccc2)nc2sc(C)nn12)C(=O)N(C)C`: 185 to 187 °C.
Turning to `COc1ccc2c3c(c(=O)oc2c1)CN(CCN1CC2CCC1CC2)CC3`, the melting point is 112 to 113 °C.
`NC(=O)NN=Cc1c2ccccc2c(C=NNC(N)=O)c2ccccc12` registered a melting point of 300 °C.
The value for `c1ccc(Cn2c3ccccc3c3ccsc32)cc1` was 96 to 98 °C; that for `O=c1ccn(-c2cccc(C(F)(F)F)c2)nc1-c1ccnn1Cc1ccccc1` was 156 to 157 °C.
Next, `FC(F)(F)c1cccc(Oc2nccc(-c3ccc(Cl)c(Cl)c3)n2)c1`: 106 °C; `Cc1cc(-c2ccc(F)cc2)n(-c2ccc(S(C)(=O)=O)cc2)c1`: 151 to 154 °C.
Next, `O=C1CSC(C(=O)Nc2ccc(Cl)cc2)Cc2ccc(Cl)cc21` (centres undefined): 235 to 236 °C.
Molecule `Cc1cc(C)n(C(=O)CNS(=O)(=O)c2ccc(C3CCCCC3)cc2)n1` had a melting point of 138 °C.
With `COc1ccc(CNc2nc(N)n3nc(-c4ccco4)nc3n2)cc1OCc1ccccc1`, the melting point was in the range of 173 to 175 °C.
`NCCCc1ccc(OCCC2Oc3ccccc3N(Cc3cccc(Cl)c3)C2=O)cc1` (centres undefined) showed a melting point of 109 to 111 °C.
The value for `CCOC(=O)c1ccc2ncccc2c1` was 66 to 67 °C; that for `CC(=O)NC(NC(=O)C(F)(F)F)C(=O)NCc1ccccc1` (centres undefined) was 228 to 230 °C; that for `c1ccc2c(c1)CCC(n1cncn1)C21OCCO1` (centres undefined) was 108 °C.
The value for `Nc1ncnc2c1c(-c1ccccc1Cl)cn2-c1ccccc1` was 175 to 176 °C.
Next, `C=C(C)c1cc(-c2ccc(OCCNC(N)=O)cc2)n(-c2ccc(OC)nc2)n1`: 94 to 98 °C; `COc1nc(C)nc(NC(=O)NS(=O)(=O)c2ccccc2-c2ccccc2)n1`: 190 to 193 °C; `O=C(OCC1CC1)c1ncn2c1[C@@H]1CCCN1C(=O)c1c(I)cccc1-2`: 164 to 165 °C.
`CNc1nc(C(N)=O)c(-c2ccncc2)s1`: the melting point is 212 to 213 °C.
The value for `CCOC(=O)Cc1ccc2cc(O)ccc2c1` was 81 to 83 °C; that for `COc1ccc2c(=O)c(CO)cn(C)c2c1` was 164 to 166 °C.
In turn, `CCOC(=O)c1cn(NC=O)c2cc(-n3cccc3)c(F)cc2c1=O` yielded a melting point of 254 to 257 °C.
The value for `CCOC(=O)Cc1nc(-c2ccc(Cl)cc2)oc1-c1ccsc1` was 127 to 128 °C; that for `Cc1cc(-n2ccnc2)c2cccc(OCc3c(Cl)ccc(S(=O)(=O)N4CCC[C@H]4C(=O)N4CCN(c5ccccc5)CC4)c3Cl)c2n1` was 88 °C.
The value for `COc1cc(OC)nc(C2OC(=O)c3c(Cl)cccc32)n1` (centres undefined) was 148 to 149 °C; that for `C=CC[C@H](C(N)=O)[C@@H](CC(C)C)C(=O)NC1N=C(c2ccccc2)c2cc(OC)ccc2N(C)C1=O` (some centres undefined) was 244 to 255 °C; that for `COc1ccccc1S(=O)(=O)NC(=O)c1ccc(C(=O)O)nc1` was 234 to 236 °C.
Next, `CC1(C)C2CC[C@@]1(N1CCOCC1)[C@H](O)C2`: 35 to 36 °C; `CCc1cn(C[C@@H](C)O)c2ccc(F)cc12`: 65 to 67 °C; `Cc1cc(-c2csc(-c3ccc(C(=O)O)cc3)n2)c(C)s1`: 239 to 240 °C.
`C=Cn1cc(C(=O)O)c(=O)c2cc(F)c(N3CCC(NC)C3)nc21` (centres undefined) showed a melting point of 160 to 161 °C.
Next, `Cc1oc(-c2ccccc2)nc1CCOc1ccc(/C=C/CO)cn1`: 115 to 116 °C.
On to `COC(=O)c1ccccc1-c1n[nH]c(-c2cccc(C(F)(F)F)c2)n1`, for which the melting point was in the range of 110 to 112 °C.
The value for `COc1ccc2ccc(O)c(-c3nnc(Cl)c4ccccc34)c2c1` was greater than 210 °C; that for `NC(=O)c1cc(C(=O)N(CCO)CCO)cc([N+](=O)[O-])c1` was 151 °C.
The value for `C=CC1CCC2C3CCC4=CC(O)C=CC4(C)C3CCC12C` (centres undefined) was 98 to 128 °C; that for `COC(=O)c1ccc(C=O)c2ccccc12` was 95 to 96 °C; that for `O=C(Nc1ccc2nc(CN3CCCC3)ccc2c1)c1ccc(N2CCCCC2=O)cc1` was 210 to 212 °C.
Next, `CC(c1ccc(-c2ccccc2)c(F)c1)c1csc(NC(=O)C(N)=O)n1` (centres undefined): 179 to 180 °C; `Cc1nc2ncnn2c(O)c1CCCOCC(C)(C)C`: 155 to 159 °C.
As to `CC(COc1ccc(C(N)=O)c(O)c1)NCC(O)COc1ccc(NS(C)(=O)=O)cc1` (centres undefined), the melting point lay within 147 to 150 °C.
`CCCCCCC(C)(C)c1cc(O)c2c(c1)OC(C)(C)CC2C(=O)O` (centres undefined) showed a melting point of 147 to 148 °C.
Next, `Cc1ccc(C(=O)N2CCC(c3ccccc3)=N2)cn1`: 86 to 87 °C; `CC1C(CCc2ccccc2)SC2=CC=NC3=CC=CC(c4ccccc4)C321` (centres undefined): 210 °C.
Next, `Nc1ccc(C(=O)C(=O)c2ccc(N)cc2)cc1`: 207 °C.
The value for `CCCCC1=NC2(CCCC2)C(=O)N1Cc1ccc(-c2ccccc2S(=O)(=O)Nc2onc(C)c2C)c(CCCC)c1` was 58 to 61 °C; that for `CC(=O)c1cccc2cc3cccc(C(C)=O)c3cc12` was 178 to 181 °C.
For `CC(C)(CCC(=O)N[C@H](Cc1ccc(-c2ccccc2)cc1)C(=O)NCCCCNc1ncccn1)C(=O)O`, the melting point is 85 to 98 °C.
`CON=C(Nc1nc(OC)nc(OC)n1)NS(=O)(=O)c1ccccc1-c1ccccc1` had a melting point of 189 to 190 °C.
Next, `O=C(Nc1ccccc1)O[C@@H]1CN2CCC1CC2`: 129 to 130 °C; `CCCCCOc1ccc(C=O)cc1OCCCCC`: 31 to 32.5 °C; `O=c1cc(-c2nnn[nH]2)oc2cc(COc3cccc(OCc4ccc5ccccc5n4)c3)ccc12`: 246 °C.
The value for `CC1CCC(Nc2nccc(Oc3ccc(NC(=O)c4cc(F)cc(N5CCOCC5)c4)c4ccccc34)n2)CC1` (centres undefined) was 116 to 117 °C.
Regarding `N#Cc1cccnc1N1CCN(CNC(=O)c2ccccc2Cl)CC1`, the melting point was in the range of 137 to 139 °C.
Regarding `CCCCC1Cc2c(c3cccnc3n(-c3ccc(C)cc3)c2=O)O1` (centres undefined), the melting point fell in the range of 282 to 284 °C.
Next, `CCCCc1ncc(CNC(C)(Cc2ccccc2)C(=O)O)n1Cc1ccccc1Cl` (centres undefined): 157 to 159 °C; `O=C(O)c1cccc(-c2ccc(F)c3cc(Cc4cccc(C(F)(F)F)c4)oc23)c1`: 172 to 173 °C.
The value for `COc1cc(Cc2c(N)nc(N)nc2O)cc(OC)c1OC` was 275 to 276 °C.
The value for `CC(=O)OCC(=O)C1(O)CCC2C3CCC4=CC(=O)CCC4(C)C3=CCC21C` (centres undefined) was 234 °C; that for `O=C(Cl)c1c(Cl)c(Cl)c(Cl)c(Cl)c1CCl` was 77 to 78 °C.
As to `O=C(O)c1ccc(OC(F)(F)F)c(Cl)c1Cl`, the melting point fell in the range of 123 to 126 °C.
Take `NC(CO)(CO)CCc1ccc(C(=O)CCCCCc2ccccc2)cc1`: the melting point lay in the range of 118 to 120 °C.
Next, `CCCCn1c(=O)c2cn(S(C)(=O)=O)nc2n(CCCC)c1=O`: 103 to 104 °C.
Next, `CCCc1ccc2nc(S(=O)(=O)CC)c(S(N)(=O)=O)n2n1`: 232 to 233 °C; `COc1cc(CC(=O)Nc2ccc(C3CN(Cc4ccccc4)CC3C(=O)O)cc2)ccc1NC(=O)Nc1ccccc1C` (centres undefined): 255 °C.
The value for `O=C(OCc1ccccc1)N1CCN(c2ccc(-c3ccnc(Cl)n3)cn2)CC1` was 145 to 147 °C; that for `COCCN(CCOC)c1nc2cc(-c3ccc(OC)cc3)nnc2c2ccccc12` was 127 to 128 °C.
`O=C(Nc1nnn(C(F)F)n1)C1c2ccccc2Oc2ccccc21`: the melting point was 168 to 169 °C.
Molecule `CCOC(=O)Cn1c(C(=O)O)cc2cc(Cl)ccc21` showed a melting point of 198 to 200 °C.
Molecule `CCOCCOCCOc1cc(N2C(=O)C3=C(CCCC3)C2=O)c(F)cc1Cl` yielded a melting point of 61 °C.
The value for `O=C1c2ccccc2C(O)N1CCCl` (centres undefined) was 133 to 134 °C; that for `O=C1NC(=O)C(Cc2ccc(OCCc3nc(-c4ccccc4)oc3CO)cc2)S1` (centres undefined) was 98 to 99 °C.
